Reference: ChEMBL document CHEMBL2364335, “Structure-activity relationship data for chemical series of achiral agonists of the ghrelin (growth hormone secretagogue) receptor (Supplementary Bioactivity Data for publication CHEMBL1140573)”

target: Growth hormone secretagogue receptor type 1 (Homo sapiens, UniProt Q92847); experiment: SUPPLEMENTARY: Agonist activity at GSHR by FLIPR assay. Same assay as CHEMBL941945; assay type: functional
Sequence (Q92847 whole entry): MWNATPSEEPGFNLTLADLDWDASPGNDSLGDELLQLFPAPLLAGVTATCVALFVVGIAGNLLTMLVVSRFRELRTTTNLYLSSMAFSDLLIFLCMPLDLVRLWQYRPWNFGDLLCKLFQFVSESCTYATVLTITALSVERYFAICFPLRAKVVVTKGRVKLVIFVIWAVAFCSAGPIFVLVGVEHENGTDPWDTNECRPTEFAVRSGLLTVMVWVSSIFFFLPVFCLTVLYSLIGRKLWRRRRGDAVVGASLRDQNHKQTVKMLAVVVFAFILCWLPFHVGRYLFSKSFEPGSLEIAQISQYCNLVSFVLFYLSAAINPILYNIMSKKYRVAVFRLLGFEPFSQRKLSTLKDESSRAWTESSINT

SMILES	EC50
COc1ccc(N2C[C@@H](C)N[C@@H](C)C2)cc1NS(=O)(=O)c1ccc(-c2cnccn2)cc1	31.6 nM
COc1cc(-c2ccco2)ccc1S(=O)(=O)Nc1cccc(N2C[C@@H](C)N[C@@H](C)C2)c1	20 nM
COc1ccc(N2C[C@@H](C)N[C@@H](C)C2)cc1NS(=O)(=O)c1ccc2ccccc2c1	7.94 nM
COc1ccc(N2C[C@@H](C)N[C@@H](C)C2)cc1NS(=O)(=O)c1ccc(-c2cc(C)cs2)cc1F	0.501 nM
COc1ccc(N2C[C@@H](C)N[C@@H](C)C2)cc1NS(=O)(=O)c1cccc(Cl)c1Cl	15.8 nM
COc1ccc(N2C[C@@H](C)N[C@@H](C)C2)cc1NS(=O)(=O)c1ccc(-c2ccsc2)cc1	5.01 nM
COc1cc(-c2cc(C)cs2)ccc1S(=O)(=O)Nc1cccc(N2C[C@@H](C)N[C@@H](C)C2)c1	6.31 nM
COc1ccc(N2C[C@@H](C)N[C@@H](C)C2)cc1NS(=O)(=O)c1ccc(-c2ccc(C)cc2)s1	31.6 nM
COc1ccc(N2C[C@@H](C)N[C@@H](C)C2)cc1NS(=O)(=O)c1ccc(-c2ccsc2)c(C)c1	7.94 nM
COc1ccc(NS(=O)(=O)c2ccc(-c3cccs3)cc2)cc1N1C[C@@H](C)N[C@@H](C)C1	1 nM
COc1ccc(N2C[C@@H](C)N[C@@H](C)C2)cc1NS(=O)(=O)c1ccc(-c2ccc(F)cc2F)cc1	100 nM
COc1ccc(NS(=O)(=O)c2ccc(-c3cccc(C)n3)cc2)cc1N1C[C@@H](C)N[C@@H](C)C1	15.8 nM
C[C@@H]1CN(c2cccc(NS(=O)(=O)c3ccc(-c4cccs4)cc3)c2)C[C@H](C)N1	6.31 nM
COc1ccc(N2C[C@@H](C)N[C@@H](C)C2)cc1NS(=O)(=O)c1ccc(-c2ccsc2)cc1Cl	3.16 nM
COc1ccc(N2C[C@@H](C)N[C@@H](C)C2)cc1NS(=O)(=O)c1ccc(-c2cc(C)cs2)cc1C	0.398 nM
COc1ccc(N2C[C@@H](C)N[C@@H](C)C2)cc1NS(=O)(=O)c1csc2ccccc12	10 nM
C[C@@H]1CN(c2ccc(F)c(NS(=O)(=O)c3ccc(-c4ccoc4)cc3)c2)C[C@H](C)N1	25.1 nM
COc1ccc(N2C[C@@H](C)N[C@@H](C)C2)cc1NS(=O)(=O)c1cccc(-c2cc(C)cs2)c1	50.1 nM

Continued, values first:

EC50	SMILES
50.1 nM	COc1ccc(N2C[C@@H](C)N[C@@H](C)C2)cc1NS(=O)(=O)c1ccc(-c2cccs2)nc1
5.01 nM	COc1ccc(N2C[C@@H](C)N[C@@H](C)C2)nc1NS(=O)(=O)c1ccc(-c2cc(C)cs2)cc1Cl
50.1 nM	COc1ccc(NS(=O)(=O)c2ccc(-c3ccccc3C)s2)cc1N1C[C@@H](C)N[C@@H](C)C1
2 nM	COc1ccc(N2C[C@@H](C)N[C@@H](C)C2)cc1NS(=O)(=O)c1ccc(-c2ccco2)cc1C
12.6 nM	COc1ccc(N2C[C@@H](C)N[C@@H](C)C2)cc1NS(=O)(=O)c1ccc(-c2ccc(Cl)s2)cc1
39.8 nM	COc1ccc(N2C[C@@H](C)N[C@@H](C)C2)cc1NS(=O)(=O)c1cccc(-c2ccoc2)c1
3.98 nM	COc1ccc(NS(=O)(=O)c2ccc(-c3cccc(C)c3)s2)cc1N1C[C@@H](C)N[C@@H](C)C1
12.6 nM	COc1ccc(N2C[C@@H](C)N[C@@H](C)C2)cc1NS(=O)(=O)c1cc(C)c(-c2cccc(C)n2)s1
31.6 nM	COc1ccc(NS(=O)(=O)c2ccc(-c3cccc(F)c3F)cc2)cc1N1C[C@@H](C)N[C@@H](C)C1
3.98 nM	Cc1ccc(N2C[C@@H](C)N[C@@H](C)C2)cc1NS(=O)(=O)c1ccc(-c2cccs2)cc1
1.26 nM	Cc1csc(-c2ccc(S(=O)(=O)Nc3cc(N4C[C@@H](C)N[C@@H](C)C4)ccc3C)cc2)c1
2.51 nM	COc1ccc(NS(=O)(=O)c2ccc(-c3cccs3)cc2F)cc1N1C[C@@H](C)N[C@@H](C)C1
31.6 nM	Cc1ccc(-c2ccc(S(=O)(=O)Nc3ccnc(N4C[C@@H](C)N[C@@H](C)C4)n3)cc2F)o1
3.16 nM	COc1ccc(NS(=O)(=O)c2ccc(-c3cccs3)c(F)c2)cc1N1C[C@@H](C)N[C@@H](C)C1
3.98 nM	COc1ccc(N2C[C@@H](C)N[C@@H](C)C2)cc1NS(=O)(=O)c1ccc(-c2csc(C)c2)cc1
